How the values were obtained:
Desulfovibrio vulgaris = test: Inhibition of sulfidogenesis by sulfate-reducing bacteria (D. vulgaris culture, lactate/sulfate medium); assay type: cell-based
Method: Twelve tubes of basal anaerobic medium containing 15 mM lactate and 15 mM sulfate were inoculated with an active culture of D. vulgaris and incubated for 6 hours at 30° C., until a visible increase in optical density was observed. After six hours, the tubes were further inoculated with A. suillum and 15 mM chlorate prior to incubation overnight at 30° C., as outlined in Table 2.

[1] = test system: marine sediment slurry microcosms; test: Sulfide inhibition in marine sediment slurry microcosms; assay type: cell-based; conditions: addition of chlorate and Dechloromarinus strain NSS, extended incubation for over 250 hours
Excerpt: In the absence of chlorate and Dechloromarinus strain NSS sulfide is readily produced.

## [O-][Cl+2]([O-])O [chlorate]
Desulfovibrio vulgaris; 15 mM chlorate alone, 24 hours, 30° C., 15 mM lactate and 15 mM sulfate
  sulfide production by D. vulgaris relative to control cells incubated without chlorate: 49%
Desulfovibrio vulgaris; 15 mM chlorate together with A. suillum, 24-hour incubation, 30° C., 15 mM lactate and 15 mM sulfate
  sulfide production by D. vulgaris relative to control cells incubated in the absence of A. suillum and chlorate: 17%
Desulfovibrio vulgaris; chlorate at relatively low concentrations (15 mM)
  antimicrobial activity against D. vulgaris: has antimicrobial activity against D. vulgaris
Desulfovibrio vulgaris; treated with A. suillum (PS) and chlorate at 48 hours, relative to untreated control
  time course of sulfidogenesis by D. vulgaris (FIG. 6): immediate inhibition of sulfide production and removal of sulfide from the medium
[1]
  sulfide production in marine sediment slurry microcosms (FIG. 4): sulfide inhibition
